Assay results taken from ChEMBL document CHEMBL5649167, “The SUV4-20 inhibitor A-196 verifies a role for epigenetics in genomic integrity” (Nat Chem Biol, 2017).
Each block holds one molecule with its values, some of them ahead of it. Calls of active or inactive are those of the source. No cut-off for these calls is given here.

Key:
[1] = biological target: MAP kinase-interacting serine/threonine-protein kinase 2 (Homo sapiens) (UniProt Q9HBH9); assay: Inhibition of human MNK2 at 10 uM relative to control
[2] = biological target: N-lysine methyltransferase KMT5A (Homo sapiens) (UniProt Q9NQR1); assay: Inhibition of SETD8 (unknown origin) using Biotin-tagged H4K20me1 and [3H-SAM] as substrate at 1 to 10 uM incubated for 2 hrs by scintillation proximity assay; details: dose 1-10 µM
U2OS [3] = assay: Antiproliferative activity against human U2OS cells assessed as inhibition in H4K20me2 expression level 21 doublings by Western blot analysis; type: functional, cell-based
[4] = biological target: Mitogen-activated protein kinase 14 (Homo sapiens) (UniProt Q16539); assay: Inhibition of human p38alpha at 10 uM relative to control
Chain of Mitogen-activated protein kinase 14 (Homo sapiens) (Q16539 whole entry): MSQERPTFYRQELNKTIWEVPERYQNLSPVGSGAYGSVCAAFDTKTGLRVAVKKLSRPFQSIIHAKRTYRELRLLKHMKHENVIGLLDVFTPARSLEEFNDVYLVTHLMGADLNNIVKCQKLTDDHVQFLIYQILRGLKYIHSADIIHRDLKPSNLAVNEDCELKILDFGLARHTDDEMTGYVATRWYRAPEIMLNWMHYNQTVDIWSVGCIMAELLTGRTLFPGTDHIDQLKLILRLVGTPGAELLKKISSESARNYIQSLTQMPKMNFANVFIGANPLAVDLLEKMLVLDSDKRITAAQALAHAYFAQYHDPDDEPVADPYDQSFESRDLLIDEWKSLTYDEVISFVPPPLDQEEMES

[5] = biological target: Serine/threonine-protein kinase pim-2 (Homo sapiens) (UniProt Q9P1W9); assay: Inhibition of human Pim2 at 10 uM relative to control
U2OS [6] = assay: Antiproliferative activity against human U2OS cells assessed as cell population doubling at 1 uM incubated for 80 days; type: functional, cell-based; details: time 80.0 day
HeLa [7] = assay: Antiproliferative activity against human HeLa cells assessed as cell population doubling at 1 uM incubated for 80 days; type: functional, cell-based; details: time 80.0 day
[8] = biological target: Aurora kinase A (Homo sapiens) (UniProt O14965); assay: Inhibition of human AurA at 10 uM relative to control
[9] = biological target: RAF proto-oncogene serine/threonine-protein kinase (Homo sapiens) (UniProt P04049); assay: Inhibition of human RAF-1 at 10 uM relative to control
[10] = biological target: Tyrosine-protein kinase ABL1 (Homo sapiens) (UniProt P00519); assay: Inhibition of human Abl at 10 uM relative to control
[11] = biological target: Sodium-dependent dopamine transporter (Homo sapiens) (UniProt Q01959); assay: Inhibition of human DAT in stable HEK cells at 10 uM relative to control; type: cell-based
[12] = biological target: Protein kinase C beta type (Homo sapiens) (UniProt P05771); assay: Inhibition of human PKCbeta 2 at 10 uM relative to control
[13] = biological target: Cyclin-dependent kinase 1 (Homo sapiens) (UniProt P06493); assay: Inhibition of human CDC2 at 10 uM relative to control
[14] = biological target: Histone-lysine N-methyltransferase NSD2 (Homo sapiens) (UniProt O96028); assay: Inhibition of NSD2 (unknown origin) at 1 to 10 uM incubated for 1 hrs by scintillation proximity assay; details: dose 1-10 µM
[15] = biological target: Serine/threonine-protein kinase Chk1 (Homo sapiens) (UniProt O14757); assay: Inhibition of human CHK1 at 10 uM relative to control
[16] = biological target: Histone-lysine N-methyltransferase SMYD3 (Homo sapiens) (UniProt Q9H7B4); assay: Inhibition of SMYD3 (unknown origin) using Biotin-tagged H4K20me1 and [3H-SAM] as substrate at 1 to 10 uM incubated for 2 hrs by scintillation proximity assay; details: dose 1-10 µM
[17] = biological target: Serine/threonine-protein kinase PAK 4 (Homo sapiens) (UniProt O96013); assay: Inhibition of human PAK4 at 10 uM relative to control
Chain of Serine/threonine-protein kinase PAK 4 (Homo sapiens) (O96013 whole entry, looked up): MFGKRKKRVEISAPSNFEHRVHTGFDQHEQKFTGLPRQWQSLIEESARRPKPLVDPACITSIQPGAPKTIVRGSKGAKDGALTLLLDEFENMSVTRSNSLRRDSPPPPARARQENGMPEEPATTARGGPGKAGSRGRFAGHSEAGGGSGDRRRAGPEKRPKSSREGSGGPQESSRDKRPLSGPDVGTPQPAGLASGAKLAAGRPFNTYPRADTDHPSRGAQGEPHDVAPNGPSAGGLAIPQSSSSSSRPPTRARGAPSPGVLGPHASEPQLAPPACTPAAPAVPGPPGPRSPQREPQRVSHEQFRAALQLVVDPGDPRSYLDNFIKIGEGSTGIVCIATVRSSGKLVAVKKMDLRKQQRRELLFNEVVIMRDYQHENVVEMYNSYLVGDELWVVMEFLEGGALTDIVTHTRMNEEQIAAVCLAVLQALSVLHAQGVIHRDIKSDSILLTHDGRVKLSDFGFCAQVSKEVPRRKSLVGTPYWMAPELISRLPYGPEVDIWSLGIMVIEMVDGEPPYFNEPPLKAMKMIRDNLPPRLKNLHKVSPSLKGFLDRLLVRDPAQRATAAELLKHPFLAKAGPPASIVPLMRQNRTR

[18] = biological target: PRMT5/MEP50 complex (Homo sapiens) (UniProt O14744+Q9BQA1); assay: Inhibition of PRMT5/MEP50 complex (unknown origin) using Biotin-tagged H4K20me1 and [3H-SAM] as substrate at 1 to 10 uM incubated for 2 hrs by scintillation proximity assay; type: protein-complex assay; details: dose 1-10 µM
[19] = biological target: Calcium/calmodulin-dependent protein kinase type II subunit alpha (Homo sapiens) (UniProt Q9UQM7); assay: Inhibition of human CaMK2alpha at 10 uM relative to control
Chain of Calcium/calmodulin-dependent protein kinase type II subunit alpha (Homo sapiens) (Q9UQM7 whole entry): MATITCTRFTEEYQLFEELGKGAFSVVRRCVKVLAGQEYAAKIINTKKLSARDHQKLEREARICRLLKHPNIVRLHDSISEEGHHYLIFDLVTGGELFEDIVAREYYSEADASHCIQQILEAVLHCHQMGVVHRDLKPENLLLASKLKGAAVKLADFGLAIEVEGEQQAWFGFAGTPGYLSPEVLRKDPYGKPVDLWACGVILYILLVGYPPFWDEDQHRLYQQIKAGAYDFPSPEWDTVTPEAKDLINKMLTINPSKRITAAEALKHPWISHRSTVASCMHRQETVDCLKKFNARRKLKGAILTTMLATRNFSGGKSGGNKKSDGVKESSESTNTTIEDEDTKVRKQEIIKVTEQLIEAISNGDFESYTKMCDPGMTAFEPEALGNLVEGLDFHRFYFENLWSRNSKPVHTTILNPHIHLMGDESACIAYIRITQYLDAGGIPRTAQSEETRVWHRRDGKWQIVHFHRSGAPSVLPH

[20] = biological target: Fibroblast growth factor receptor 1 (Homo sapiens) (UniProt P11362); assay: Inhibition of human FGFR1 kinase at 10 uM relative to control
HeLa [21] = assay: Antiproliferative activity against human HeLa cells assessed as inhibition in H4K20me3 expression level for 21 doublings by Western blot analysis; type: functional, cell-based
[22] = biological target: Histone-lysine N-methyltransferase, H3 lysine-79 specific (Homo sapiens) (UniProt Q8TEK3); assay: Inhibition of DOT1L (unknown origin) at 1 to 10 uM incubated for 1 hrs by scintillation proximity assay; details: dose 1-10 µM
[23] = biological target: Histone-lysine N-methyltransferase KMT5B (Homo sapiens) (UniProt Q4FZB7); assay: Inhibition of recombinant human 6His-(Tev)-G-SUV420H1 (69 to 335 residues) using Biotin-tagged H4K20me1 and [3H-SAM] as substrate at 1 uM incubated for 2 hrs by scintillation proximity assay
[24] = biological target: N-lysine methyltransferase SMYD2 (Homo sapiens) (UniProt Q9NRG4); assay: Inhibition of SMYD2 (unknown origin) using Biotin-tagged H4K20me1 and [3H-SAM] as substrate at 1 to 10 uM incubated for 2 hrs by scintillation proximity assay; details: dose 1-10 µM
Chain of N-lysine methyltransferase SMYD2 (Homo sapiens) (Q9NRG4 whole entry): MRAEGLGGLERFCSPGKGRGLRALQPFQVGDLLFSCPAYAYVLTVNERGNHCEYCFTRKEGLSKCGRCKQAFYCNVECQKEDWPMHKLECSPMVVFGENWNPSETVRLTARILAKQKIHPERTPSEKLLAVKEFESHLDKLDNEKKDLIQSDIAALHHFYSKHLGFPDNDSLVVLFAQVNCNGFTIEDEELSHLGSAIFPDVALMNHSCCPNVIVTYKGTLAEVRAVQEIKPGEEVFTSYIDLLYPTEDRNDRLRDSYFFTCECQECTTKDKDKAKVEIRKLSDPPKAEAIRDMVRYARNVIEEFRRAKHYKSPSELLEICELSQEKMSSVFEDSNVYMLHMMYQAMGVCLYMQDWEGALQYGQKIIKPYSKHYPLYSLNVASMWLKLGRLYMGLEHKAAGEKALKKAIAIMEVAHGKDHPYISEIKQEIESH

[25] = biological target: Histone-lysine N-methyltransferase SUV39H2 (Homo sapiens) (UniProt Q9H5I1); assay: Inhibition of SUV39H2 (unknown origin) using Biotin-tagged H4K20me1 and [3H-SAM] as substrate at 1 to 10 uM incubated for 2 hrs by scintillation proximity assay; details: dose 1-10 µM
HL-60 = assay: Cytotoxicity against human HL-60 cells assessed as cell viability upto 12.5 uM incubated for 48 hrs; type: functional, cell-based
[26] = biological target: Histone-lysine N-methyltransferase, H3 lysine-36 specific (Homo sapiens) (UniProt Q96L73); assay: Inhibition of NSD1 (unknown origin) at 1 to 10 uM incubated for 1 hrs by scintillation proximity assay; details: dose 1-10 µM
U2OS [27] = assay: Cytotoxicity against human U2OS cells assessed as cell viability at 1.5 to 100 uM incubated after 72 hrs; type: functional, cell-based; details: dose 1.5-100 µM
Homo sapiens [28] = species on record: Homo sapiens; assay: Inhibition of DNMT3B/3L (unknown origin) at 1 to 10 uM incubated for 1 hrs by scintillation proximity assay; details: dose 1-10 µM
U2OS [29] = assay: Inhibition of colony formation in human U2OS cells at 1 uM incubated for 48 hrs in the presence of hydroxyurea by cell clonogenic assay; type: functional, cell-based
[30] = biological target: DNMT3A2/3L complex (Homo sapiens) (UniProt Q9Y6K1+Q9UJW3); assay: Inhibition of DNMT3A/3L (unknown origin) at 1 to 10 uM incubated for 1 hrs by scintillation proximity assay; type: protein-complex assay; details: dose 1-10 µM
Chain of DNMT3A2/3L complex (Homo sapiens) (Q9UJW3 whole entry, looked up): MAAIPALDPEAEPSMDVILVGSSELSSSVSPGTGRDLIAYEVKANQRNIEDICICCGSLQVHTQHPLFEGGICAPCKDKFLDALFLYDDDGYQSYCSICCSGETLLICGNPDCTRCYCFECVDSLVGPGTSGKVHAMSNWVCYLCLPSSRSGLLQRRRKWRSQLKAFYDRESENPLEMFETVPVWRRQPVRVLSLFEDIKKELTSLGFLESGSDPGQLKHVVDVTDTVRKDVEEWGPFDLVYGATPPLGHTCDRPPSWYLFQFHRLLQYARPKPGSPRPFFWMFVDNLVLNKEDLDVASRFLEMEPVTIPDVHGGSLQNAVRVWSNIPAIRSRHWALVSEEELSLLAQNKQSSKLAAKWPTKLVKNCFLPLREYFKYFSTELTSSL
Chain of DNMT3A2/3L complex (Homo sapiens) (Q9Y6K1 whole entry, looked up): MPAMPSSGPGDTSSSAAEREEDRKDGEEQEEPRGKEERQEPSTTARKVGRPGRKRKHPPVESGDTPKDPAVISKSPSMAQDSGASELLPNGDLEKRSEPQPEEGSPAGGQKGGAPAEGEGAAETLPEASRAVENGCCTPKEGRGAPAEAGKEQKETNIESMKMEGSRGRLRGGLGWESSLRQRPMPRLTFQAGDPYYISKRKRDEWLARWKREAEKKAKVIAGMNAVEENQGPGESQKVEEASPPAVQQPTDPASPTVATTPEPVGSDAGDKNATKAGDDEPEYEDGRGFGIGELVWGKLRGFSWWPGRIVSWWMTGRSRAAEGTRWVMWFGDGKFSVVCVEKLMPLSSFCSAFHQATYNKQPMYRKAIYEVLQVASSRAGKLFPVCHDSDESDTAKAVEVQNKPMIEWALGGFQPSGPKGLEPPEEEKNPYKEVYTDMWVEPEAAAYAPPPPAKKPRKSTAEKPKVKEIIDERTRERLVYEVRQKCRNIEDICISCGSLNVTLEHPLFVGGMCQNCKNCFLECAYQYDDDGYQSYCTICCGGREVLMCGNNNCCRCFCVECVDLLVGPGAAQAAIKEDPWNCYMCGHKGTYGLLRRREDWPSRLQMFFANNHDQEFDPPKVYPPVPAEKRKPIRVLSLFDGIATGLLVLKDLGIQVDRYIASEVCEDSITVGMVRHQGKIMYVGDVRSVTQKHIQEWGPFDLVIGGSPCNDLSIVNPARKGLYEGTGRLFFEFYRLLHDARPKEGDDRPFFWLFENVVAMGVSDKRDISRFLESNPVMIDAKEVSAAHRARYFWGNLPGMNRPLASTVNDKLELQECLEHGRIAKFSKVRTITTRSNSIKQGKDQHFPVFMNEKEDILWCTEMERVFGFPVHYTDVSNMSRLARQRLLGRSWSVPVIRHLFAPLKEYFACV

[31] = biological target: Rho-associated protein kinase 1 (Homo sapiens) (UniProt Q13464); assay: Inhibition of human ROCK1 at 10 uM relative to control
Chain of Rho-associated protein kinase 1 (Homo sapiens) (Q13464 2-1354 limits assumed): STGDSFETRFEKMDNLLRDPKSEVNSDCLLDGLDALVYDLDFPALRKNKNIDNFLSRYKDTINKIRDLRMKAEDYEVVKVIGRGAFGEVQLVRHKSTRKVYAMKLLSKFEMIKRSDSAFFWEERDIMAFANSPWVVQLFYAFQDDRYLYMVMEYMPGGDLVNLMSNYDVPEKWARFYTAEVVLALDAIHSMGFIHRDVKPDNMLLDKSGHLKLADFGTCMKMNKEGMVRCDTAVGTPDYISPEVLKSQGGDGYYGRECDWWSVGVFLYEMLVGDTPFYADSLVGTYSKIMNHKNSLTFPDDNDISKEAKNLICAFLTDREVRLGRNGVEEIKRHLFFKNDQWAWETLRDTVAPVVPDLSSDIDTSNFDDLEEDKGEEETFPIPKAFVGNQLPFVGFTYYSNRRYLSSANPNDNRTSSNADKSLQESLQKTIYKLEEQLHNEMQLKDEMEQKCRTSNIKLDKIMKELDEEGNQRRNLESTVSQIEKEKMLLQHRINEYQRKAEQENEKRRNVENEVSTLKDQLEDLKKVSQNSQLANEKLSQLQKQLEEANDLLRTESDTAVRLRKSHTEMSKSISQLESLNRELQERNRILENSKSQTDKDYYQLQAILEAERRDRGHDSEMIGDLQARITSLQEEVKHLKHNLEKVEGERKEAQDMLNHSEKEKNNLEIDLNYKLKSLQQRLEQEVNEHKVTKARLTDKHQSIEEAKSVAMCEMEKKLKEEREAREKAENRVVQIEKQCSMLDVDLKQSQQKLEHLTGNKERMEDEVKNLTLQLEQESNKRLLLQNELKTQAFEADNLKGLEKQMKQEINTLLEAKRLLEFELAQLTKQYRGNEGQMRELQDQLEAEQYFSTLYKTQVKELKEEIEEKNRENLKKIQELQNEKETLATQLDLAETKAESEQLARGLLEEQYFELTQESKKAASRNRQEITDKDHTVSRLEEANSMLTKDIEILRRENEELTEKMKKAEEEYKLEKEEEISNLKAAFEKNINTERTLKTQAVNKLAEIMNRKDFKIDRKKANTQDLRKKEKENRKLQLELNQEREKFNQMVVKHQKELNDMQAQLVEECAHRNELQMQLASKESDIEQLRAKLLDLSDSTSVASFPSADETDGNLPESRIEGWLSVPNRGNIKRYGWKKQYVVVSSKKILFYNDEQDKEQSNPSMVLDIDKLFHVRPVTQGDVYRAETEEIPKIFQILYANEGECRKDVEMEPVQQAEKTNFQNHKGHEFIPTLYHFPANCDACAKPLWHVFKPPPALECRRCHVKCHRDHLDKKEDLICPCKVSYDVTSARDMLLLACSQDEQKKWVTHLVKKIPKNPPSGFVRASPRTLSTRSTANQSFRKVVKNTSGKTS

U2OS [32] = assay: Inhibition of colony formation in human U2OS cells at 1 uM incubated for 48 hrs in the presence of CPT by cell clonogenic assay; type: functional, cell-based
[33] = biological target: Protein arginine N-methyltransferase 1 (Homo sapiens) (UniProt Q99873); assay: Inhibition of PRMT1 (unknown origin) using Biotin-tagged H4K20me1 and [3H-SAM] as substrate at 1 to 10 uM incubated for 2 hrs by scintillation proximity assay; details: dose 1-10 µM
Chain of Protein arginine N-methyltransferase 1 (Homo sapiens) (Q99873 whole entry, looked up): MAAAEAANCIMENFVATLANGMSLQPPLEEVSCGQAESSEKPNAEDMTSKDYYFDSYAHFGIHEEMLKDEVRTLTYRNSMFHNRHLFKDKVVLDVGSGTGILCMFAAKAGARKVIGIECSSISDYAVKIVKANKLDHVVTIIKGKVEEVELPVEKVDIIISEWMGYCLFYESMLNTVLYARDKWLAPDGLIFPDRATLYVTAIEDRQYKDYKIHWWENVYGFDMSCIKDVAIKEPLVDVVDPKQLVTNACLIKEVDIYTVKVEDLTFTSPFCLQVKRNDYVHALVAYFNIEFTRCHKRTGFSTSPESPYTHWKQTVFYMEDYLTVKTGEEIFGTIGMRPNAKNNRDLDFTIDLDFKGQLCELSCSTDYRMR

[34] = biological target: 5-hydroxytryptamine receptor 1B (Homo sapiens) (UniProt P28222); assay: Inhibition of human 5-hydroxytryptamine receptor 1B at 10 uM relative to control
Homo sapiens [35] = species on record: Homo sapiens; assay: Inhibition of human GABAA at 10 uM relative to control
Homo sapiens [36] = species on record: Homo sapiens; assay: Inhibition of human CB1 at 10 uM relative to control

inhibition [1]: 7%
inhibition [2]: inactive
inhibition [4]: -4%
inhibition [5]: -3%
inhibition [8]: -6%
inhibition [9]: 8%
inhibition [10]: 2%
inhibition [11]: -4%
inhibition [12]: -3%
inhibition [13]: 3%
inhibition [14]: inactive
inhibition [15]: 3%
inhibition [16]: inactive
inhibition [17]: -8%
inhibition [18]: inactive
inhibition [19]: -5%
inhibition [20]: -8%
inhibition [22]: inactive
inhibition [23]: Active
inhibition [24]: inactive
inhibition [25]: inactive
inhibition [26]: inactive
inhibition (Homo sapiens [28]): inactive
inhibition [30]: inactive
inhibition [31]: -1%
inhibition [33]: inactive
inhibition [34]: 20%
Structure (SMILES): Clc1cc2c(NC3CCCC3)nnc(-c3ccncc3)c2cc1Cl
Activity (U2OS [3]): Active
Activity (U2OS [6]): Active
Activity (HeLa [7]): Active
Activity (HeLa [21]): Active
Activity (HL-60): Active
Activity (U2OS [27]): Active
inhibition (U2OS [29]): Active
inhibition (U2OS [32]): Active

inhibition (Homo sapiens [35]): -7%
inhibition (Homo sapiens [36]): 21%
Structure (SMILES): O=C(c1nnc(NC2CCCC2)c2cc(Cl)c(Cl)cc12)N1CCC(O)CC1
